According to ChEMBL document CHEMBL1201861, “Genomics of Drug Sensitity in Cancer screening data, Wellcome Trust Sanger Institute”:
pIC50: −log10 of the molar value. Several values for one entry are separate records, joined by “and”; a condition that tells them apart may be missing. Equal values may be shown once.

Experiments:
NCI-H250 = assay: SANGER: Inhibition of human NCI-H250 cell growth in a cell viability assay.; format: functional, cell-based
TC-YIK = assay: SANGER: Inhibition of human TC-YIK cell growth in a cell viability assay.; format: functional, cell-based
NCI-H378 = assay: SANGER: Inhibition of human NCI-H378 cell growth in a cell viability assay.; format: functional, cell-based
C-4-II = assay: SANGER: Inhibition of human C-4-II cell growth in a cell viability assay.; format: functional, cell-based
EW-7 = assay: SANGER: Inhibition of human EW-7 cell growth in a cell viability assay.; format: functional, cell-based
MES-SA = assay: cells; format: functional, cell-based, Homo sapiens;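 further: growth inhibition of human MES-SA cells, read out with a cell viability assay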
Description: SANGER: Inhibition of human MES-SA cell growth in a cell viability assay.

DMS-53 = assay: cells; format: functional, cell-based, Homo sapiens;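 further: cell viability assay measuring growth inhibition of human DMS-53 cells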
Description: SANGER: Inhibition of human DMS-53 cell growth in a cell viability assay.

NCI-H1734 = assay: cells; format: functional, cell-based; details: Homo sapiens;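 further: growth inhibition of human NCI-H1734 cells, read out with a cell viability assay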
Description: SANGER: Inhibition of human NCI-H1734 cell growth in a cell viability assay.

NCI-H1975 = assay: cells; format: functional, cell-based; details: Homo sapiens
Description: SANGER: Inhibition of human NCI-H1975 cell growth in a cell viability assay.

SK-MG-1 = assay: SANGER: Inhibition of human SK-MG-1 cell growth in a cell viability assay.; format: functional, cell-based
SK-MEL-5 = assay: SANGER: Inhibition of human SK-MEL-5 cell growth in a cell viability assay.; format: functional, cell-based
Caov-4 = assay: cells; format: functional, cell-based; details: Homo sapiens
Description: SANGER: Inhibition of human Caov-4 cell growth in a cell viability assay.

CRO-AP2 = assay: SANGER: Inhibition of human CRO-AP2 cell growth in a cell viability assay.; format: functional, cell-based
KP-N-RT-BM-1 = assay: SANGER: Inhibition of human KP-N-RT-BM-1 cell growth in a cell viability assay.; format: functional, cell-based
CP67-MEL = assay: SANGER: Inhibition of human CP67-MEL cell growth in a cell viability assay.; format: functional, cell-based

Structure (SMILES)	pIC50 (C-4-II)	pIC50 (EW-7; Homo sapiens, EW-7)	pIC50 (MES-SA; Homo sapiens, MES-SA)	pIC50 (DMS-53; Homo sapiens, DMS-53)	pIC50 (NCI-H1734)	also measured
C=C1C(=O)O[C@@H]2C3O[C@]3(C)CC/C=C(\C)CC[C@@H]12 (stereo partly drawn)	–	–	–	–	–	pIC50 (NCI-H250): < 5.30; pIC50 (TC-YIK): < 5.30; pIC50 (NCI-H378): < 5.30
COC(=O)CNC(=O)C(=O)OC	3.26	3.14	2.97	3.74	< 2.40	–
CN(C)C/C=C/C(=O)Nc1cc2c(Nc3ccc(F)c(Cl)c3)ncnc2cc1O[C@H]1CCOC1 [AFATINIB]	–	–	–	–	–	pIC50 (NCI-H1975): < 6.30
Cc1cc([C@@H](C)Nc2ccccc2C(=O)O)c2nc(N3CCOCC3)cc(=O)n2c1 [AZD-6482]	< 5.29	–	–	< 5.29	< 5.29	pIC50 (SK-MG-1): < 5.29; pIC50 (EW-7; ew-7): 6.06 and 5.51; pIC50 (MES-SA; mes-sa): < 5.29 and 5.96; pIC50 (SK-MEL-5): < 5.29; pIC50 (Caov-4): < 5.29; pIC50 (NCI-H1975): < 5.29; pIC50 (DMS-53; dms-53): < 5.29
O=C(NOCC1CC1)c1ccc(F)c(F)c1Nc1ccc(I)cc1Cl [CI-1040]	–	–	–	–	–	pIC50 (NCI-H1975): 5.19
Nc1ccn([C@@H]2O[C@H](CO)[C@@H](O)[C@@H]2O)c(=O)n1 [CYTARABINE]	–	–	–	–	–	pIC50 (NCI-H1975): < 5.70
COc1cc([C@@H]2c3cc4c(cc3[C@@H](O[C@@H]3O[C@@H]5CO[C@@H](C)O[C@H]5[C@H](O)[C@H]3O)[C@H]3COC(=O)[C@H]23)OCO4)cc(OC)c1O [ETOPOSIDE]	5.77	6.90	6.34	< 4.80	5.82	pIC50 (Caov-4): < 4.80
Cc1cnc(-c2cnc(NCCNc3ccc(C#N)cn3)nc2-c2ccc(Cl)cc2Cl)[nH]1 [LADUVIGLUSIB]	< 5.59	< 5.59	< 5.59	< 5.59	< 5.59	pIC50 (Caov-4): < 5.59
C[C@]1(O)C[C@@H](c2nc(-c3ccc4ccc(-c5ccccc5)nc4c3)c3c(N)nccn32)C1 [LINSITINIB]	< 5.59	6.72	< 5.59	< 5.59	< 5.59	–
C=CCc1cccc(/C=N/NC(=O)CN2CCN(Cc3ccccc3)CC2)c1O [PAC-1]	< 5.59	< 5.59	< 5.59	< 5.59	< 5.59	–
Cc1ccc(Nc2nccc(N(C)c3ccc4c(C)n(C)nc4c3)n2)cc1S(N)(=O)=O [PAZOPANIB]	< 5.10	< 5.10	< 5.10	< 5.10	< 5.10	–
CN(c1ncccc1CNc1nc(Nc2ccc3c(c2)CC(=O)N3)ncc1C(F)(F)F)S(C)(=O)=O [PF-00562271]	< 5.59	< 5.59	5.88	< 5.59	< 5.59	pIC50 (Caov-4): < 5.59
CCc1nc(N)nc(N)c1-c1ccc(Cl)cc1 [PYRIMETHAMINE]	–	–	–	–	–	pIC50 (CRO-AP2): 4.73
CN1CCN(CCOc2cc(OC3CCOCC3)c3c(Nc4c(Cl)ccc5c4OCO5)ncnc3c2)CC1 [SARACATINIB]	–	–	–	–	–	pIC50 (CRO-AP2): < 5.70; pIC50 (KP-N-RT-BM-1): < 5.70; pIC50 (CP67-MEL): < 5.70
Cn1cc(C2=C(c3ccc(Cl)cc3Cl)C(=O)NC2=O)c2ccccc21 [SB-216763]	–	–	–	–	–	pIC50 (NCI-H1975): < 5.00
CO[C@H]1C[C@@H]2CC[C@@H](C)[C@@](O)(O2)C(=O)C(=O)N2CCCC[C@H]2C(=O)O[C@H]([C@H](C)C[C@@H]2CC[C@@H](O)[C@H](OC)C2)CC(=O)[C@H](C)/C=C(\C)[C@@H](O)[C@@H](OC)C(=O)[C@H](C)C[C@H](C)/C=C/C=C/C=C/1C [SIROLIMUS]	–	–	–	–	–	pIC50 (KP-N-RT-BM-1): < 7.00; pIC50 (TC-YIK): < 7.00; pIC50 (CP67-MEL): < 7.00
CNC(=O)c1cc(Oc2ccc(NC(=O)Nc3ccc(Cl)c(C(F)(F)F)c3)cc2)ccn1 [SORAFENIB]	–	–	–	–	–	pIC50 (CRO-AP2): < 5.40
Cn1cncc1[C@@](N)(c1ccc(Cl)cc1)c1ccc2c(c1)c(-c1cccc(Cl)c1)cc(=O)n2C [TIPIFARNIB]	5.21	< 4.80	5.34	< 4.80	4.84	–
CCC(=O)N1CCN(c2ccc(-n3c(=O)ccc4cnc5ccc(-c6cnc7ccccc7c6)cc5c43)cc2C(F)(F)F)CC1 [TORIN1]	–	–	–	–	–	pIC50 (KP-N-RT-BM-1): < 5.92; pIC50 (CP67-MEL): 7.42
Cc1cc(Nc2cc(N3CCN(C)CC3)nc(Sc3ccc(NC(=O)C4CC4)cc3)n2)n[nH]1 [TOZASERTIB]	–	–	–	–	–	pIC50 (KP-N-RT-BM-1): < 5.70; pIC50 (CP67-MEL): < 5.70
CCC1=C[C@@H]2CN(C1)Cc1c([nH]c3ccccc13)[C@@](C(=O)OC)(c1cc3c(cc1OC)N(C)[C@H]1[C@@](O)(C(=O)OC)[C@H](OC(C)=O)[C@]4(CC)C=CCN5CC[C@]31[C@@H]54)C2 [VINORELBINE]	7.64	7.78	8.51	< 7.19	7.85	pIC50 (Caov-4): < 7.19
